Test results reported in patent US12404251B2, “Small molecule compound” (Cerepeut, Inc., priority 2017, dated 2025).
Entries after “also recorded” stand apart in the source; their conditions may differ.

Assays:
Molt-4 = experiment: CellTiter-Glo cell viability, Molt-4 T-ALL model; type: cell-based, human; conditions: Molt-4, 72 hour incubation
Method: (§1) Cell seeding (Day “−1”): The cell density of eight adherent cell lines was adjusted according to supplier-recommended information. 50 μL cells were seeded in four 384-well-plates, and 50 μL DPBS was added to the edge wells.
(§2) Compound preparation (Day 0): All test compounds were dissolved in DMSO and stored in a nitrogen cabinet. The stock concentration of the test compounds was 120 mM. The stock concentration of the reference compounds was 10 mM. The reference compound paclitaxel was diluted with DMSO to provide a 400 μM stock solution.
(§3) Cell treatment with test compounds (Day 0): Test compounds (125 nL in DMSO) were added to the wells using an ECHO liquid handling system (Labcyte Inc.) and serially diluted by three fold, providing 10 doses in each series with a maximum concentration of 300 μM. […]
(§4) Assay (Day 3): After the cells were treated with the compounds for 72 hours, the plates were equilibrated at room temperature for approximately 30 minutes. 25 μL of CellTiter Glo reagent was added to each well, and the luminescence in each well was measured after 10 min using an ENVISION fluorescence plate reader (PerkinElmer). […]
(§5) To evaluate the anti-tumor activity of CPT-2008, the growth inhibitory effect of the compound was measured in various human cancer cell lines after 72 hour incubation. […] The data recorded for the paclitaxel reference compound were consistent with the historical published data.

Jurkat = experiment: CellTiter-Glo cell viability, Jurkat T cell leukemia model; type: cell-based, human; conditions: 72 hour incubation
Method: as §1, §2, §3, §4, §5

NCI-H82 = experiment: CellTiter-Glo cell viability, NCI-H82 SCLC model; type: cell-based, human; conditions: NCI-H82, 72 hour incubation
Method: as §1, §2, §3, §4, §5

NCI-H446 = experiment: CellTiter-Glo cell viability, NCI-H446 SCLC model; type: cell-based, human; conditions: NCI-H446, 72 hour incubation
Method: as §1, §2, §3, §4, §5

NCI-H1299 = experiment: CellTiter-Glo cell viability, NCI-H1299 NSCLC model; type: cell-based, human; conditions: NCI-H1299, 72 hour incubation
Method: as §1, §2, §3, §4, §5

A549 = experiment: CellTiter-Glo cell viability, A549 NSCLC model; type: cell-based, human; conditions: A549, 72 hour incubation
Method: as §1, §2, §3, §4, §5

T98G = experiment: CellTiter-Glo cell viability, T98G glioblastoma model; type: cell-based, human; conditions: 72 hour incubation
Method: as §1, §2, §3, §4, §5

U118MG = experiment: CellTiter-Glo cell viability, U118MG glioblastoma model; type: cell-based, human; conditions: 72 hour incubation
Method: as §1, §2, §3, §4, §5

MCF7 = experiment: CellTiter-Glo cell viability, MCF7 breast cancer model; type: cell-based, human; conditions: MCF7, 72 hour incubation
Method: as §1, §2, §3, §4, §5

A2780 = experiment: CellTiter-Glo cell viability, A2780 ovarian cancer model; type: cell-based, human; conditions: A2780, 72 hour incubation
Method: as §1, §2, §3, §4, §5

HCT116 = experiment: CellTiter-Glo cell viability, HCT116 colorectal cancer model; type: cell-based, human; conditions: HCT116, 72 hour incubation
Method: as §1, §2, §3, §4, §5

human GBM cells [1] = experiment: Mitochondrial calcium, Rhod-2AM staining; type: cell-based; conditions: vs DMSO control (FIG. 14)
Source text: GBM cells treated with DMSO vehicle (control) or with CPT-2008 in DMSO were stained with Rhod-2AM to probe mitochondrial calcium (mito-Ca^2+) level. CPT-2008 elevated mito-Ca^2+.
(§6) CPT-2008 affects mitochondrial function. […] Given the important role of mitochondria in maintaining cancer cells, especially cancer stem cells, the effects of CPT-2008 on a number of mitochondrial parameters in human glioblastoma (GBM) cells were texted next. First, the effects of CPT-2008 on mitochondrial ROS level were studied. For this purpose, the mito-SOX dye was used. Mito-SOX can specifically monitor mitochondrial ROS levels. […] The effect of CPT-2008 on mitochondrial membrane potential, a key factor that determines mitochondrial health and activity, was also measured using the TRM dye. […] The effect of CPT-2008 on mitochondrial calcium homeostasis was also measured using the Rhod-2AM dye, which specifically monitors mitochondrial calcium levels. […] The effect of CPT-2008 on mitochondrial morphology was also measured using immunostaining of the mitochondrial outer membrane marker Tom20. […] Finally, the effect of CPT-2008 on the self-renewal of GBM cells was tested.

human GBM cells [2] = experiment: Mitochondrial ROS, Mito-SOX staining; type: cell-based; conditions: vs DMSO control (FIG. 15)
Source text: GBM cells treated with DMSO vehicle (control) or with CPT-2008 in DMSO were stained with Mito-SOX to probe mitochondrial ROS level.
as §6

GBM cells = experiment: Mitochondrial morphology, TOM-20 immunostaining; type: cell-based, human; conditions: vs DMSO control (FIG. 16)
Source text: GBM cells treated with DMSO (control) or CPT-2008 in DMSO were immunostained for TOM-20 to reveal mitochondrial morphology.
as §6

human GBM cells [3] = experiment: Mitochondrial membrane potential, TMRM staining; type: cell-based; conditions: vs DMSO vehicle (FIG. 17)
Source text: GBM cells treated with DMSO vehicle or with CPT-2008 in DMSO were stained with TMRM to probe mitochondrial membrane potential.
as §6

human GBM cells [4] = experiment: Self-renewal of GBM cells (neurosphere formation); type: cell-based; conditions: 20 uM CPT-2008 vs DMSO vehicle (FIG. 18)
Method: Control: cells treated with DMSO vehicle; CPT-2008: cells treated with 20 uM CPT-2008.
as §6

Sprague-Dawley rats = experiment: Rat middle cerebral artery occlusion (MCAO) stroke model; type: in vivo; conditions: rat MCAO 1.5 h, 24 h reperfusion; 25-100 mg/kg intraperitoneally 0 h and 8 h after reperfusion; TTC staining; compared with edaravone 6 mg/kg
Method: Edaravone (3-methyl-1-phenyl-2-pyrazolin-5-one) is a reactive oxygen species (ROS) scavenger approved for the treatment of stroke and ALS in Japan, and for the treatment of ALS in the United States. The efficacy of CPT-2008 for preventing brain damage in a rat middle cerebral artery occlusion (MCOA) model was compared with the efficacy of edaravone. Sprague-Dawley rats were dosed with vehicle, edaravone (6 mg/kg), or CPT-2008 (25-100 mg/kg), and the level of infarcted brain tissue was assessed. In this study rats underwent middle cerebral artery occlusion (MCAO) for 1.5 h followed by 24 h reperfusion. CPT-2008 was given intraperitoneally 0 h and 8 h after reperfusion, and behavior deficits and brain insult were assessed by Longa score scale and TTC staining, respectively. […] It is believed that the improved benefit of CPT-2008 is due, in part, to prevention ROS formation in brain tissue mitochondria.

paclitaxel-treated rats = experiment: Paclitaxel-induced neuropathic pain model, paw withdrawal test; type: in vivo, rat; conditions: 100 mg/kg intraperitoneal; 1.5 h, 3 h, 4.5 h post dosing; vs vehicle (FIG. 20)
Method: An estimated 30-40% of cancer patients undergoing chemotherapy experience peripheral neuropathic pain, a neuroinflammation-induced debilitating side effect that causes patients to stop their treatment early or take lower doses. The effects of CPT-2008 in reducing neuropathic pain were studied in paclitaxel-treated rats. After paclitaxel treatment for 8 days, Sprague-Dawley rats were housed for additional days. On day 22, 16 rats were randomly separated into two groups. One group was dosed with vehicle, and the other group was dosed via intraperitoneal injection with CPT-2008 at 100 mg/kg. Pain (mechanical allodynia) test subjects was assessed using a paw withdrawal test (PWT) as described by Xie (“Activation of notch signaling mediates the induction and maintenance of mechanical allodynia in a rat model of neuropathic pain.” Molecular Medicine Reports 12: 639-644, 2015). Rats were measured for paw withdrawal threshold post dosing of test compound at 1.5 h, 3 h, and 4.5 h.

[5] = Pharmacokinetics in Sprague-Dawley rats (plasma and brain); type: in vivo, rat; conditions: for bioavailability: Sprague-Dawley, rat, in vivo
Method: Sprague-Dawley rats were administered CPT-2008 by IV or PO. Blood samples (about 1 mL) were collected via cardiac puncture after euthanasia by carbon dioxide inhalation at 5 min, 15 min, 30 min, 1 h, 2 h, 4 h, 8 h, 24 h of post dose. Blood samples were placed into tubes containing heparin sodium and centrifuged at 3500 rpm for 10 minutes at 4° C. to separate plasma from the samples. Following centrifugation, the resulting plasma was transferred to labeled tubes and stored frozen at −80° C. pending bioanalysis. The brain each studied animal at each time point was collected after the animal was euthanized by carbon dioxide inhalation. The whole tissue was harvested, excised and then placed into one tube per tissue per animal. The tissue samples were placed on dry ice and then stored at −80° C. until bioanalysis.

in vitro [6] = type: in vitro ADME; conditions: human
in vitro [7] = type: in vitro ADME; conditions: human; remark: listed apart in the source

## COc1cc(-n2c(S)nc3cc(OC)c(Cl)cc3c2=O)c(Cl)cc1Cl [CPT-2008, 6-chloro-3-(2,4-dichloro-5-methoxyphenyl)-2-mercapto-7-methoxyquinazolin-4(3H)-one]
Molt-4
  IC50: low μM range
Jurkat
  IC50: nM range
NCI-H82
  IC50: nM range
NCI-H446
  IC50: nM range
NCI-H1299
  IC50: low μM range
A549
  IC50: low μM range
T98G
  IC50: low μM range
U118MG
  IC50: low μM range
MCF7
  IC50: low μM range
A2780
  IC50: nM range
HCT116
  IC50: low μM range
Human GBM cells [1]
  mitochondrial calcium (mito-Ca2+) level: caused an increase; also recorded: elevated
Human GBM cells [2]
  mitochondrial ROS level: significant increase; also recorded: significantly elevated
GBM cells
  mitochondrial morphology: dramatic fragmentation of mitochondria; also recorded: induced mitochondrial size reduction
Human GBM cells [3]
  mitochondrial membrane potential: dramatic reduction; also recorded: dramatically reduced
Human GBM cells [4]
  self-renewal of GBM cells (ability to form neurospheres): significantly inhibited; also recorded: lost such ability
Sprague-Dawley rats
  level of infarcted (dead) brain tissue: reduced levels of dead brain tissue
paclitaxel-treated rats
  paw withdrawal threshold (mechanical allodynia): increased threshold values
[5]; Sprague-Dawley rats, IV or PO (FIG. 21A, 21B)
  crossing of the blood brain barrier: efficiently cross the blood brain barrier
[5]; brain bioavailability
  bioavailability: 39%
[5]; plasma bioavailability
  bioavailability: 94.5%
In vitro [6]
  stability in microsomes: excellent stability
In vitro [6]; microsomes
  half-life: ~3.6 h
In vitro [7]
  stability in hepatocytes: excellent stability
In vitro [7]; hepatocytes, half-life
  half-life: ~94.3 h
